This note sets out measurements from publication PMC10175918 (Communications Biology, 2023).

Holding throughout (test): TGFα-shedding assay-based GPCR screening with chimeric Gα subunit proteins
Holding throughout (format): cell-based

Experiment [1] deals with 348 GPCRs (Homo sapiens, UniProt O43193). The note with it: 10µM, Favipiravir 100μM.
Experiment [2] addresses T1, 348 GPCRs (Homo sapiens, UniProt P08173).
T1 construct: expressed in transfected cells; host or cells: HEK293A
T1 sequence (P08173 1-479): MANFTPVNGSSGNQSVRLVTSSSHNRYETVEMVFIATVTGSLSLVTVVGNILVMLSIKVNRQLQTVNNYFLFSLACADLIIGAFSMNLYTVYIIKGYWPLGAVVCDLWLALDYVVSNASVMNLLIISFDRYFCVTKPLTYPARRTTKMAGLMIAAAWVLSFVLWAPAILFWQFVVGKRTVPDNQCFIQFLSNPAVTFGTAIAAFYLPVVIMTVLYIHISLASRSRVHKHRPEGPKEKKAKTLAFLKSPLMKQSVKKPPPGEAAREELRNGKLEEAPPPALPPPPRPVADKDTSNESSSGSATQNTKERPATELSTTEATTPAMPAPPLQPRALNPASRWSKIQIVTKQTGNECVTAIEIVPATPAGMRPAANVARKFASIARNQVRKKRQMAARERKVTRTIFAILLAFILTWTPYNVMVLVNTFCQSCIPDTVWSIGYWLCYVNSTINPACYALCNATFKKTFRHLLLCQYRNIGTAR

Experiment [3] addresses 348 GPCRs (Homo sapiens, UniProt P35372). The note with it: 10µM, Favipiravir 100μM.
Experiment [4] has as its target T2, 348 GPCRs (Homo sapiens, UniProt Q8TDV5).
T2 construct: expressed in transfected cells; host or cells: HEK293A
T2 sequence (Q8TDV5 1-335): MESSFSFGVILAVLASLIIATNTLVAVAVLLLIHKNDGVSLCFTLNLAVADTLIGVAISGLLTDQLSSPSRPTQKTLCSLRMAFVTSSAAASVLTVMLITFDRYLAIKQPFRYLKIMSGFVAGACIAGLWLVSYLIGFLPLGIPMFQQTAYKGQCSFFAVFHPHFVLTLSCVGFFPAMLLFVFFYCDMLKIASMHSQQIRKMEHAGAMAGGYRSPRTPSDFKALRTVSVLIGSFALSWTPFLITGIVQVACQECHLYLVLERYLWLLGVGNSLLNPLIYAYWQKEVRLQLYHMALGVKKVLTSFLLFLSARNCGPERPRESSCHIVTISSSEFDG

In experiment [5] the target is 348 GPCRs (Homo sapiens, UniProt Q99500). The conditions noted are these: 10µM, Favipiravir 100μM.
The target in experiment [6] is T3, 348 GPCRs (Homo sapiens, UniProt Q03431).
T3 sequence (Q03431 27-593): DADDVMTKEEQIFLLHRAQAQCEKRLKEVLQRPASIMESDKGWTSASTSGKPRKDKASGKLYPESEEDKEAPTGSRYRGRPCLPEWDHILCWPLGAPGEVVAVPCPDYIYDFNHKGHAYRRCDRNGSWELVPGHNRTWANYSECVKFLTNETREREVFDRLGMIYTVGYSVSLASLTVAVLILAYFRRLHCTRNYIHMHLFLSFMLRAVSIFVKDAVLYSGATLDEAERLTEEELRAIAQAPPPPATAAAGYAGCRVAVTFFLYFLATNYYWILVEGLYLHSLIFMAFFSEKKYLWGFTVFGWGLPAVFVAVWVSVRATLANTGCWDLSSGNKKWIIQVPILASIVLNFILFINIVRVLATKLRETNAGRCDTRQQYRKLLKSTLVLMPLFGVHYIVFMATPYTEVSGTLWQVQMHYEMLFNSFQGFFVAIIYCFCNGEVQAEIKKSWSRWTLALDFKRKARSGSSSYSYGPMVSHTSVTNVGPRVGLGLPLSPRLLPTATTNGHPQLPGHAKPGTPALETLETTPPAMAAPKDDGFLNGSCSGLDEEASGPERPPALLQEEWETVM
The note with it: 10µM, Favipiravir 100μM.

In experiment [7] the target is T4, 348 GPCRs (Homo sapiens, UniProt P32245).
T4 construct: expressed in transfected cells; host or cells: HEK293A

In experiment [8] the target is 348 GPCRs (Homo sapiens, UniProt P30872). The note with it: 10µM, Favipiravir 100μM.
Experiment [9] concerns the target T5, 348 GPCRs (Homo sapiens, UniProt O15552).
T5 construct: expressed in transfected cells; host or cells: HEK293A
T5 sequence (O15552 1-330): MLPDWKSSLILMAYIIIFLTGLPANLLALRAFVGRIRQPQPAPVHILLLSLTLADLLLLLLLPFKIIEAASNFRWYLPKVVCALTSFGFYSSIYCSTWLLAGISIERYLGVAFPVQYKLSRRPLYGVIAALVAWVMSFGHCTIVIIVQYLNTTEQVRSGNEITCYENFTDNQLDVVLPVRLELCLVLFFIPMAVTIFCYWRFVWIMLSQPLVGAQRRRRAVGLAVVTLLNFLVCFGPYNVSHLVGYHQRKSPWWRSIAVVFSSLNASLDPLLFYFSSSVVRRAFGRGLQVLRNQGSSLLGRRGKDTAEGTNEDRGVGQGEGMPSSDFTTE
The note with it: 10µM, Favipiravir 100μM.

Experiment [10] deals with T6, 348 GPCRs (Homo sapiens, UniProt Q8TDT2).
T6 construct: expressed in transfected cells; host or cells: HEK293A
The conditions noted are these: 10µM, Favipiravir 100μM.

[11] abbreviates: read-out: % GPCR activation compared to TPA, MLNR (motilin receptor).
Setting [12] is: read-out: % GPCR activation compared to TPA, GPCR M4 (Muscarinic acetylcholine receptor M4).
[13] abbreviates: OPRM1, read-out: % GPCR activation compared to TPA, OPRM1 (opioid receptor, mu 1 (MOR1)).
Where [14] appears, read: read-out: % GPCR activation compared to TPA, GPCR GPR119 (G protein-coupled receptor 119).
The mark [15] stands for this setting: read-out: % GPCR activation compared to TPA, S1PR3 (sphingosine-1-phosphate receptor 3).
Where [16] appears, read: read-out: % GPCR activation compared to TPA, PTH1R (parathyroid hormone 1 receptor).
[17] abbreviates: read-out: % GPCR activation compared to TPA, GPCR MC4R (melanocortin 4 receptor).
The mark [18] stands for this setting: read-out: % GPCR activation compared to TPA, SSTR1 (somatostatin receptor 1).
Setting [19] is: read-out: % GPCR activation compared to TPA, FFA2 (free fatty acid receptor 2).
Where [20] appears, read: read-out: % GPCR activation compared to TPA, GPR152 (G Protein-Coupled Receptor 152).
Where [21] appears, read: MLNR (motilin receptor), read-out: % GPCR activation compared to TPA.
The mark [22] stands for this setting: S1PR3 (sphingosine-1-phosphate receptor 3), read-out: % GPCR activation compared to TPA.
[23] abbreviates: PTH1R (parathyroid hormone 1 receptor), read-out: % GPCR activation compared to TPA.
[24] abbreviates: SSTR1 (somatostatin receptor 1), read-out: % GPCR activation compared to TPA.
[25] abbreviates: FFA2 (free fatty acid receptor 2), read-out: % GPCR activation compared to TPA.
[26] abbreviates: GPR152 (G Protein-Coupled Receptor 152), read-out: % GPCR activation compared to TPA.
[27] abbreviates: GPCR M4 (Muscarinic acetylcholine receptor M4), read-out: % GPCR activation compared to TPA.
Where [28] appears, read: GPCR GPR119 (G protein-coupled receptor 119), read-out: % GPCR activation compared to TPA.
Setting [29] is: GPCR MC4R (melanocortin 4 receptor), read-out: % GPCR activation compared to TPA.

Structures are written as SMILES. Like-named read-outs stand apart in the source and are kept apart here.

348 GPCRs (Homo sapiens, UniProt P30872), sequence (P30872 whole entry): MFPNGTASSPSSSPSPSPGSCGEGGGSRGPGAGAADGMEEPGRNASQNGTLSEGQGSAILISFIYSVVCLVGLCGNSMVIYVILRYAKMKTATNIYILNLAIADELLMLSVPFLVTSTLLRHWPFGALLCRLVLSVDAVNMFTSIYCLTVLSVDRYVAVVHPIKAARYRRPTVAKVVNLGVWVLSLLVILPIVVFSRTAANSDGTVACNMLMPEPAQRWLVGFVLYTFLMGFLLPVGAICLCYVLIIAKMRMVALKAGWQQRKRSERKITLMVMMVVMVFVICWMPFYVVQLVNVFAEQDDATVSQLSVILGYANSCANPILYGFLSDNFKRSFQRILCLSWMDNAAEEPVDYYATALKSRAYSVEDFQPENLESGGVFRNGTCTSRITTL
348 GPCRs (Homo sapiens, UniProt P35372), sequence (P35372 whole entry): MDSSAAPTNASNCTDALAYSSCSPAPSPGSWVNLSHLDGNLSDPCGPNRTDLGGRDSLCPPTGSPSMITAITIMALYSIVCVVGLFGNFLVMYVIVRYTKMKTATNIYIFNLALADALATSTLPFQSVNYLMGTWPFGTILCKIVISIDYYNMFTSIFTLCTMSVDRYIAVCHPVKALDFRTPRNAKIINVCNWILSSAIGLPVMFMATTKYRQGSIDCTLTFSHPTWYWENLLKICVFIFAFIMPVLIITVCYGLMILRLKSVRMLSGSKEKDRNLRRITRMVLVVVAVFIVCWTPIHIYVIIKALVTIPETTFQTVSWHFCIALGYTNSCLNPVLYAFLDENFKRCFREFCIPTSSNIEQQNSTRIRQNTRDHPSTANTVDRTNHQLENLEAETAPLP
348 GPCRs (Homo sapiens, UniProt Q99500), sequence (Q99500 whole entry): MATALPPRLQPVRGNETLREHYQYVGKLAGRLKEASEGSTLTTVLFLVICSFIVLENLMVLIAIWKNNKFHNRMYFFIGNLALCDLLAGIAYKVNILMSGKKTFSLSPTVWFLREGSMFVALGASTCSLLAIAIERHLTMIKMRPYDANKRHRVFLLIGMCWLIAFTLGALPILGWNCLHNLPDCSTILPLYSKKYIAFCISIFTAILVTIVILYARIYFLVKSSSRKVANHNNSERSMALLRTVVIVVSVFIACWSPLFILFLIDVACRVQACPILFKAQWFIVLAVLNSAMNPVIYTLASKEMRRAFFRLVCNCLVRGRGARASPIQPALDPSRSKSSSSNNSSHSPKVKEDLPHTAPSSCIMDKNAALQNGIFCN
348 GPCRs (Homo sapiens, UniProt O43193), sequence (O43193 whole entry): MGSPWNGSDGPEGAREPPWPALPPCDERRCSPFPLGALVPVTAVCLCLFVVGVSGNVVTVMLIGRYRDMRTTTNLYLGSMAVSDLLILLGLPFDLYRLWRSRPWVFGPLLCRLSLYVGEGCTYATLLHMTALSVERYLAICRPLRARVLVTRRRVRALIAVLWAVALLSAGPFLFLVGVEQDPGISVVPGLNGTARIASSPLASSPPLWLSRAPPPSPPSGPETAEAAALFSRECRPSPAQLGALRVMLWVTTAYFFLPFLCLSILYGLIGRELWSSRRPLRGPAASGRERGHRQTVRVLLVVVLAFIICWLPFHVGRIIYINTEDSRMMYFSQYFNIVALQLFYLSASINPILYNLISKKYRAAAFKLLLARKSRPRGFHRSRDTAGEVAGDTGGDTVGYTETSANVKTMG
T4 sequence (P32245 whole entry): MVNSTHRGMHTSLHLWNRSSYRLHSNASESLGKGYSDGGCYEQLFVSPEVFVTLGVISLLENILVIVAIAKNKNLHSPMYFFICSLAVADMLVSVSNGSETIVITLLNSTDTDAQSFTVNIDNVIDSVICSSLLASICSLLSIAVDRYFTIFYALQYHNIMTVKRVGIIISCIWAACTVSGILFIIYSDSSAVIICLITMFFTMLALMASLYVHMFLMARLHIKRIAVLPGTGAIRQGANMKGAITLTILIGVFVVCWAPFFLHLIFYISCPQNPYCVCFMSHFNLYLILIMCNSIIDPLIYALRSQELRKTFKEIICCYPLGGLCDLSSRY
T6 sequence (Q8TDT2 whole entry): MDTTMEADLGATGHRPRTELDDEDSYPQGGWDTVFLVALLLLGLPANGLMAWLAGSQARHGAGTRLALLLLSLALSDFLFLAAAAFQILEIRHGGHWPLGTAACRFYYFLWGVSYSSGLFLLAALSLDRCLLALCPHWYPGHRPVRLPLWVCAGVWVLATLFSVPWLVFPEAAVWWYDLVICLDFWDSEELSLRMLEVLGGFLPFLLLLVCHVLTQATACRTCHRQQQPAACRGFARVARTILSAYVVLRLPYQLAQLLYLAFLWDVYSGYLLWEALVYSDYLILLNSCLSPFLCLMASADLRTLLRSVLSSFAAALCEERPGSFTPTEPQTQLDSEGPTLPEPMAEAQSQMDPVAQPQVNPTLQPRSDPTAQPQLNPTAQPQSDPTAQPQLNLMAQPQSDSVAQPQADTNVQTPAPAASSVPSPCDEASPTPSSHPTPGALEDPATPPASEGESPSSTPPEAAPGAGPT

Take `CC(C)OC(=O)[C@H](C)N[P@](=O)(OC[C@H]1O[C@@H](n2ccc(=O)[nH]c2=O)[C@](C)(F)[C@@H]1O)Oc1ccccc1` [sofosbuvir]: the values for the activation at 100 µM at 348 GPCRs [1] (setting [11]) and on 348 GPCRs [6] (setting [16]) were -0.32% and 1.23%, respectively. Besides, the activation at 10 µM on 348 GPCRs [2] (setting [12]) was -1.57%; at 348 GPCRs [3] (setting [13]), -0.878%; on 348 GPCRs [4] (setting [14]), -6.04%; on 348 GPCRs [5] (setting [15]), -0.452%; at 348 GPCRs [7] (setting [17]), -2.6%; on 348 GPCRs [8] (setting [18]), -0.638%. Besides, the activation at 10 µM came out at 0.172% at 348 GPCRs [9] (setting [19]) and 1.86% at 348 GPCRs [10] (setting [20]).
As to `NC(=O)c1nc(F)cnc1O` [favipiravir, 6-fluoro-3-hydroxy-2-pyrazinecarboxamide], the activation at 100 µM was -4.07% on 348 GPCRs [1] (setting [21]); -6.29% on 348 GPCRs [2] (GPCR M4 (Muscarinic acetylcholine receptor M4), 100μM, read-out: % GPCR activation compared to TPA); 3.67% at 348 GPCRs [4] (GPCR GPR119 (G protein-coupled receptor 119), 100μM, read-out: % GPCR activation compared to TPA); -0.775% on 348 GPCRs [6] (setting [23]); 2.24% at 348 GPCRs [7] (GPCR MC4R (melanocortin 4 receptor), 100μM, read-out: % GPCR activation compared to TPA). In addition, the activation at 10 µM on 348 GPCRs [3] (OPRM1, OPRM1 (opioid receptor, mu 1 (MOR1)), read-out: % GPCR activation compared to TPA) was -1.89%; on 348 GPCRs [5] (setting [22]), -2%; at 348 GPCRs [8] (setting [24]), 0.537%; on 348 GPCRs [9] (setting [25]), -0.501%; at 348 GPCRs [10] (setting [26]) it was -0.401%.
Regarding `CCC(CC)COC(=O)[C@H](C)N[P@](=O)(OC[C@H]1O[C@@](C#N)(c2ccc3c(N)ncnn23)[C@H](O)[C@@H]1O)Oc1ccccc1` [remdesivir], the activation at 100 µM is -3.19% at 348 GPCRs [1] (setting [11]) and 0.414% on 348 GPCRs [6] (setting [16]). The activation at 10 µM on 348 GPCRs [2] (setting [12]) is -2.98%; at 348 GPCRs [3] (setting [13]), -2.36%; on 348 GPCRs [4] (setting [14]), 7.14%; at 348 GPCRs [5] (setting [15]), -2.57%; on 348 GPCRs [7] (setting [17]), 3.44%; on 348 GPCRs [8] (setting [18]) it was 2.79%. The activation at 10 µM at 348 GPCRs [9] (setting [19]) is -1.72%; on 348 GPCRs [10] (setting [20]), -0.751%.
As to `N#C[C@@]1(c2ccc3c(N)ncnn23)O[C@H](CO)[C@@H](O)[C@H]1O` [GS441524], the activation at 100 µM on 348 GPCRs [1] (setting [21]) is -7.84%; on 348 GPCRs [6] (setting [23]), -0.479%. Besides, the activation at 10 µM at 348 GPCRs [2] (setting [27]) was -4.09%; on 348 GPCRs [3] (setting [13]), -2.75%; on 348 GPCRs [4] (setting [28]) it was 5.33%; on 348 GPCRs [5] (setting [22]), -2.2%; on 348 GPCRs [7] (setting [29]) it was 2.19%; on 348 GPCRs [8] (setting [24]) it was -0.554%. Also, the figures for the activation at 10 µM on 348 GPCRs [9] (setting [25]) and on 348 GPCRs [10] (setting [26]) were -2.64% and -0.232%, respectively.
Take `CC(C)C(=O)OC[C@H]1O[C@@H](n2ccc(NO)nc2=O)[C@H](O)[C@@H]1O` [molnupiravir]: the activation at 100 µM is -1.09% at 348 GPCRs [1] (setting [21]) and -0.633% on 348 GPCRs [6] (setting [23]). Also, the activation at 10 µM at 348 GPCRs [2] (setting [27]) is -1.11%; at 348 GPCRs [3] (setting [13]) it was -3.97%; on 348 GPCRs [4] (setting [28]), -26.9%; on 348 GPCRs [5] (setting [22]) it was -2.52%; on 348 GPCRs [7] (setting [29]), -1.93%; at 348 GPCRs [8] (setting [24]), 0.451%. Also, the activation at 10 µM at 348 GPCRs [9] (setting [25]) was -4.09%; at 348 GPCRs [10] (setting [26]), -1.29%.
